According to patent EP1580187A1, “Apoptogenic and antiproliferative analogs of ceramide” (Deigner, Hans-Peter, priority 2004, dated 2005):
Read-outs that look alike come from different tables or passages of the source.

Assays:
Type in all cases: cell-based
[1] = tested on: human adenocarcinoma cell line HT 29; assay: Induction of apoptosis (YOPRO-1 / Hoechst 33342 staining, count of apoptotic cells); settings: HT 29 cells, mean (MW), spontaneous apoptosis rate 2.48 % ± 0.58, unit only printed
Procedure: (§1) Human colon carcinoma cells HT-29 were purchased from ATCC and cultivated under standard conditions (37°C, 5% CO2, McCoy 5A medium, 10% fetal calf serum, penicillin, streptomycin). For experimentation, cells were seeded in cell culture dishes at appropriate density, stimulated and analysed as described in the following section.
Apoptotic macrophages and colon carcinoma cells were identified by microscopic observation of typical morphological changes (blebbing, generation of apoptotic bodies) and quantitated by YOPRO-1 staining and Hoechst 33342 dye. The percentage of apoptotic cells was counted using a microscope fitted with mercury light source and fluorescence assembly in combination with a computer-assisted morphometry system. Apoptosis was confirmed by PARP cleavage detected by Western Blotting and single cell electrophoresis (COMET-assay).
(§2) Induction of apoptosis was determined in the human adenocarcinoma cell line HT 29 as described in Example 1; spontaneous apoptosis rate was 2.48 % ± 0.58. The activation of acidic sphingomyelinase (aSMase) was analyzed in the same cell line as described in Example 1, basal activity amounts to 278,4 pmolµg^-1min^-1 ± 41,3.

[2] = target: T1, acidic sphingomyelinase (aSMase) (Homo sapiens, UniProt P17405); assay: SMase activity determination (activation of aSMase in cells, NBD-sphingomyelin hydrolysis); settings: HT 29 cells, mean (MW), basal activity 278,4 ± 41,3, unit only printed
T1 construct: endogenous in cells; host or cells: HT 29 (human adenocarcinoma cell line)
T1 sequence (P17405 47-631): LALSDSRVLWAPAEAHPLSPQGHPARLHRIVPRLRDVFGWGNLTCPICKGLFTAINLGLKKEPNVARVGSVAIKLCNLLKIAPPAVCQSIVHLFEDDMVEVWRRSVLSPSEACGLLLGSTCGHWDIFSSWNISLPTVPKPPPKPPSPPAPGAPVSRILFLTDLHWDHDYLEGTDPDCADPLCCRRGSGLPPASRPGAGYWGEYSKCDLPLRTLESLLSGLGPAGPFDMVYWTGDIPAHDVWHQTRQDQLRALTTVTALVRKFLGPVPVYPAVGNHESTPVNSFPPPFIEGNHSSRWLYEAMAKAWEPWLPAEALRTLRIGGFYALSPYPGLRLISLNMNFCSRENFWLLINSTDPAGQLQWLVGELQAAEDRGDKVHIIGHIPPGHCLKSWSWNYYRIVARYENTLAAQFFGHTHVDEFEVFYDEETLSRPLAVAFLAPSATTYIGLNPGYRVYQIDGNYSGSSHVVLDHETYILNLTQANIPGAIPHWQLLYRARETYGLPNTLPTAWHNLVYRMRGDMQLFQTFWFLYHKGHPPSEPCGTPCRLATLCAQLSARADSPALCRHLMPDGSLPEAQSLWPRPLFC
Procedure: Activities of aSMase and nSMase were determined by hydrolysis of a fluorogenic C12-analogue substrate [(7-Nitro-2-1,3-benzoxadiazol-4-yl)amino-dodecyl-D-erythro-sphingosine, NBD-sphingomyelin, Molecular Probes, subsequent separation of the labelled NBD ceramide analog by thin layer chromatography and data analysis at conditions as described in detail previously.
as §2

[3] = tested on: HT-29 colon carcinoma cells; assay: Proliferation (DNA synthesis, colorimetric BrdU-ELISA); settings: Homo sapiens
Procedure: as §1
Quantitative determination of DNA synthesis in replicating cells was analyzed using commercial available test kits (colorimetric BrdU-ELISA, Roche-Diagnostics) according to the manufacturer's instructions. For these experiments, HT-29 colon carcinoma cells were seeded in 96-well plates at 40% confluence, cultivated overnight (1% FCS), incubated for 16 h with the test compounds (concentration range: three orders of magnitude), pulsed labelled with BrdU and fixed. The amount of incorporated BrdU was analysed using specific antibodies (Roche Diagnostics, Mannheim, Germany) and subsequent colorimetric reaction. The rate of DNA-synthesis in untreated control cells with standard medium was determined and compared with that in a medium contained the test compounds.
Semiconfluent HT-29 cells were incubated with compound 4 at concentration as indicated over night and DNA synthesis was analyzed on the basis of BrdU-incorporation and subsequent immunological quantification. Compound 4 inhibited cellular proliferative activity with an apparent IC50 of among 6,7 µM. […] Due to previous calculation using dependent variables over several orders of magnitudes, no standard deviation is given in Table 1 presenting the averaged half maximal concentrations for inhibition of proliferative activity.

[4] = HT-29 cells, BrdU incorporation, averaged half maximal concentrations, no standard deviation, read-out: Anti-Prolif. IC50
[5] = semiconfluent HT-29 cells, incubation over night, BrdU-incorporation, read-out: apparent IC50 / half maximal antiproliferative activity

SMILES | Induction of apoptosis 5 μM MW [1] | Induction of apoptosis 10 μM MW [1] | Induction of apoptosis 30 μM MW [1] | aSMase-activity 5 μM MW [2] | aSMase-activity 20 μM MW [2] | IC50 [3, 4] [µM] | IC50 [3, 5] [µM]
CCCCCCCCCCCCC/C=C/[C@@H](O)[C@H](CO)NC(=O)CCCCC [Ceramide C6, reference compound] | 2,6% | 6,4% | 12,4% | 427,3 pmolµg^-1min^-1 | 743,4 pmolµg^-1min^-1 | 4 | ~4
CCCCCC(=O)N[C@@H](CO)[C@@H](O)c1ccc([N+](=O)[O-])cc1 [Compound 1, Hexanoic acid [(1S,2S)-2-hydroxy-1-hydroxymethyl-2-(4-nitrophenyl)-ethyl]-amide] | 1,3% | 8,4% | 8,9% | 541,3 pmolµg^-1min^-1 | 631,0 pmolµg^-1min^-1 | 2.4 | 
CCCCCC(=O)N[C@@H](CO)[C@H](O)C1=CCCC1 [Compound 2, Hexanoic acid ((1S,2R)-2-cyclopent-1-enyl-2-hydroxy-1-hydroxymethyl-ethyl)-amide] | 15,7% | 4,9% | 5,9% | 347,0 pmolµg^-1min^-1 | 1185,4 pmolµg^-1min^-1 | 4.6 | 
CCCCCC(=O)N[C@@H](CO)[C@H](O)/C1=C/CCCCCC1 [Compound 3, Hexanoic acid [(1S,2R)-2-((E)-cyclooct-1-enyl)-2-hydroxy-1-hydroxymethyl-ethyl]-amide] | 2,9% | 7,4% | 5,7% | 403,8 pmolµg^-1min^-1 | 1108,4 pmolµg^-1min^-1 | 3.1 | 
CC(C)(C)OC(=O)N1[C@H]([C@H](O)C2=CCCC2)COC1(C)C [Compound 4, (S)-4-((R)-Cyclopent-1-enyl-hydroxy-methyl)-2,2-dimethyloxazolidine-3-carboxylic acid tert-butyl ester] | 3,95% | 8,5% | 10,2% | 574,2 pmolµg^-1min^-1 | 812,7 pmolµg^-1min^-1 | 6.7 | ~6.7
CC(C)(C)OC(=O)N1[C@H]([C@H](O)/C2=C/CCCCCC2)COC1(C)C [Compound 5, (S)-4-[(R)-((E)-Cyclooct-1-enyl)-hydroxy-methyl]-2,2-dimethyloxazolidine-3-carboxylic acid tert-butyl ester] | 6,4% | 7,7% | 9,2% | 447,3 pmolµg^-1min^-1 | 967,3 pmolµg^-1min^-1 | 3.2 | 
